From ChEMBL document CHEMBL4342447, “l-Phenylalanine Alters the Privileged Secondary Metabolite Production in the Marine-Derived Fungus Trichoderma erinaceum F1-1” (J Nat Prod, 2020) come the findings set out here.

For one assay, the system named is MDA-MB-435. The assay can be described thus: Cytotoxicity against human MDA-MB-435 cells assessed as reduction in cell viability by MTT assay. Type of assay: functional, cell-based. (In general: Tetrazolium assays rely on reduction of a dye to a coloured formazan, in cell work by metabolically active cells.)
A further assay concerns A549. The assay can be described thus: Cytotoxicity against human A549 cells assessed as reduction in cell viability by MTT assay. The assay is classed as functional, cell-based.

The structures appear in SMILES notation. pIC50: −log10 of the molar value.

Consider `COc1cc(C)cc(Oc2cc(C)cc(O)c2)c1` [CORDYOL E], for which the pIC50 with MDA-MB-435 is 4.39.
`CC(C)(c1ccc(O)cc1)c1ccc(OCC(O)COc2ccc(C(C)(C)c3ccc(O)cc3)cc2)cc1`: the pIC50 with MDA-MB-435 was 4.65; in the assay on A549 it was 4.74.
On to `CCC(=O)Oc1cc(C)cc(Oc2cc(C)cc(OC)c2)c1`, for which the pIC50 with MDA-MB-435 is 4.50.
On the same count and under the same terms, to `COc1cc(C)cc(Oc2cc(C)cc(OC)c2)c1` belongs 4.90.

One may read the pIC50 as −log10 of the IC50, conventionally taken in molar units.
